# pEC50, pKi: −log10 of the molar value.
# Legend:
# [1] = target: T1, Alpha 2A adrenergic receptor (Homo sapiens, UniProt P08913); experiment: Radioligand binding, cell membrane homogenates
# T1 construct: expressed in transfected cells; host or cells: HEK-293
# T1 sequence (P08913 1-465): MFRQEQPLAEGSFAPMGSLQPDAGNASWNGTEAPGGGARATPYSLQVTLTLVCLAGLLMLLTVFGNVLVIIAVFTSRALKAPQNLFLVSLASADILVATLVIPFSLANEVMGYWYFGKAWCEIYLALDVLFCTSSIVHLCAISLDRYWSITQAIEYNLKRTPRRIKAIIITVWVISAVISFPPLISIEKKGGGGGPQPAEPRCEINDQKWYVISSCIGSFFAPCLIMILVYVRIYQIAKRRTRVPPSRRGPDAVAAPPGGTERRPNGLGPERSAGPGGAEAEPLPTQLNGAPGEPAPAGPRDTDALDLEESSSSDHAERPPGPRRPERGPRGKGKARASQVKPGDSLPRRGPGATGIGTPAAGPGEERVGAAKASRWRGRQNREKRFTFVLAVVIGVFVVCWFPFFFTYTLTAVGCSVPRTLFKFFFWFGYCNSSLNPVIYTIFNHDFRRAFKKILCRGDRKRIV
# Protocol: (§1) Neuro-receptor binding and functional effects of the “E559 polymorph” was examined by analyzing binding affinity [Ki (nM)], functional agonist activity [EC50 (nM)], and functional antagonist activity [IC50 (nM)] against a panel of key receptors in neurophysiological disorders. Binding and functional assays were performed at “E559 polymorph” concentrations of 0.0003, 0.003, 0.01, 0.03, 0.1, 0.3, 1, and 10 μM. In binding assays, cell membrane homogenates, expressing each receptor target, were incubated with the corresponding radio-ligand in absence or presence of several concentration of the “E559 polymorph” compound. The measurement of binding affinity of the “E559 polymorph” is represented in TABLE XIII by Ki (nM) which was calculated as percent inhibition of the binding of a radioactively labeled reference ligand at each receptor. In functional assays the HEK-293 cells expressing each receptor target were suspended in buffer and distribute in microplates and incubated for 30 minutes at room temperature or 37° C. in the presence of buffer alone (basal control), the reference agonist or antagonist, or the “E559 polymorph. Following incubation, the cells were lysed and the appropriate fluorescent probe (Ca2+ flux, cAMP, or IP1) were added for 60 minutes to measure the fluorescence transfer at the appropriate wavelength using a microplate reader. The cellular agonist effect (EC50) was calculated as a percent of control response to a known reference agonist and the cellular antagonist effect (IC50) was calculated as a percent inhibition of control reference agonist response for each receptor.
# D2S dopamine receptor = target: T2, D2S dopamine receptor (Homo sapiens, UniProt P14416); experiment: Radioligand binding, cell membrane homogenates
# T2 construct: expressed in transfected cells; host or cells: HEK-293
# T2 sequence (P14416 1-414 isoform P14416-2): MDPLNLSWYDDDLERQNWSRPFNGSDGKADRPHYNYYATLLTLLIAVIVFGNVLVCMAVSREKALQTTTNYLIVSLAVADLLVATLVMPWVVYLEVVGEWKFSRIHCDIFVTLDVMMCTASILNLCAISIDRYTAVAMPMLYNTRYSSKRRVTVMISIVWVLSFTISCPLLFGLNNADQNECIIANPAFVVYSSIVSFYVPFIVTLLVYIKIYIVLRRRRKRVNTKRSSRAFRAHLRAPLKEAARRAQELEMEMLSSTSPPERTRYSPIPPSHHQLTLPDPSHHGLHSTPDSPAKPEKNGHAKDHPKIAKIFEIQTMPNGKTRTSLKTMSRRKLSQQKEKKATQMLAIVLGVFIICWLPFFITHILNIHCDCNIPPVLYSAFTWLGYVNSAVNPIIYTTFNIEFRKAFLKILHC
# Protocol: as §1
# [2] = target: T3, Serotonin 1B receptor (5-HT1BR) (Homo sapiens, UniProt P28222); experiment: Radioligand binding, cell membrane homogenates
# T3 construct: expressed in transfected cells; host or cells: HEK-293
# T3 sequence (P28222 whole entry): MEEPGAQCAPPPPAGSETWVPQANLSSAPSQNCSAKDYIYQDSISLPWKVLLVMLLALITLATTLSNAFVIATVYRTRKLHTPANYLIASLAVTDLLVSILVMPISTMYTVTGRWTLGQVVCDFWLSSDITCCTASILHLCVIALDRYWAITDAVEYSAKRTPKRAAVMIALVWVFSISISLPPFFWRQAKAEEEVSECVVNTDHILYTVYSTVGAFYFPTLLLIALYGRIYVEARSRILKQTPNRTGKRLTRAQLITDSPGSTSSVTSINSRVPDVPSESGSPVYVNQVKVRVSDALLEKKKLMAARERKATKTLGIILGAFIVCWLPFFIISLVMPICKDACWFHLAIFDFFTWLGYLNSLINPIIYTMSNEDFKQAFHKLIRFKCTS
# Protocol: as §1
# [3] = target: T4, Serotonin 2C receptor (5-HT2CR) (Homo sapiens, UniProt P28335); experiment: Radioligand binding, cell membrane homogenates
# T4 construct: expressed in transfected cells; host or cells: HEK-293
# T4 sequence (P28335 33-458): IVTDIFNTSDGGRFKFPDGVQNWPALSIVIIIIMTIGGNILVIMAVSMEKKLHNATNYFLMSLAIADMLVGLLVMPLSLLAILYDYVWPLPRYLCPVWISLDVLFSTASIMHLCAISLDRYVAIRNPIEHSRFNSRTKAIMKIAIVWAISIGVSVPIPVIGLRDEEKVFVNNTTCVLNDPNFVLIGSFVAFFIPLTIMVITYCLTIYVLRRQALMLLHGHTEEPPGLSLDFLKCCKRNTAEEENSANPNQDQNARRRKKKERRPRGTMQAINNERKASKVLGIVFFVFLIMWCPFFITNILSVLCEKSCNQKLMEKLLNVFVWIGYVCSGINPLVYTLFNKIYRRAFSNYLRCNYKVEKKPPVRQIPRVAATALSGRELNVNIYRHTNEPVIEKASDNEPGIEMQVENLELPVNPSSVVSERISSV
# Protocol: as §1
# [4] = target: T5, ADRa2C (α2C adrenergic receptor) (Homo sapiens, UniProt P18825); experiment: cell-based
# T5 sequence (P18825 1-462): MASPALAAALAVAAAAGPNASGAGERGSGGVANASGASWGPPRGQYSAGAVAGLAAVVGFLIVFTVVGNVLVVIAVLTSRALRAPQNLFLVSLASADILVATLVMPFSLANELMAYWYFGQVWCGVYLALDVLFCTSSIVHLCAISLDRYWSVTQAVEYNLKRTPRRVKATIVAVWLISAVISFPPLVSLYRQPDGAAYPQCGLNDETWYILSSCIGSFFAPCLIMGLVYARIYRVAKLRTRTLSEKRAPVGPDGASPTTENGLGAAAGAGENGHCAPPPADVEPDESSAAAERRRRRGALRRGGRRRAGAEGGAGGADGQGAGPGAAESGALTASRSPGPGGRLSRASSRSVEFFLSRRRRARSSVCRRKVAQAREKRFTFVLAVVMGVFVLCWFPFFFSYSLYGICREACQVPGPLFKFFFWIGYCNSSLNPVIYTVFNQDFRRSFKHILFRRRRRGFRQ
compound,measurement,setting,value
"CCN(CC)C(=O)[C@@H]1C=C2c3cccc4[nH]c(Br)c(c34)C[C@H]2N(C)C1 [E559, (5R, 8R)-2-Bromo-9,10-didehydro-N,N-diethyl-6-methylergoline-8-carboxamide hemi-D-tartrate]",pKi,[1],7.99
same,pKi,D2S dopamine receptor,8.68
same,pKi,[2],7.11
same,pKi,[3],7.72
same,pEC50,[4],7.99
same,Emax,[4],40.5%
same,Kb,[4],16 nM

# — US12331051B2 (priority 2021, dated 2025)
